Where a name gives a salt, the structure may show the parent alone.
| Structure (SMILES) | melting point |
| --- | --- |
| COc1cc2ncnc(N3CCN(C(=S)Nc4ccc5ccc6cccc7ccc4c5c67)CC3)c2cc1OC | 140 to 145 °C |
| COc1cc2ncnc(N3CCN(C(=O)Nc4ccc(CNCc5ccncc5)cc4)CC3)c2cc1OC.Cl.Cl.Cl | 182 to 185 °C |
| COc1cc2ncnc(N3CCN(C(=O)Nc4ccc([N+](=O)[O-])c([N+](=O)[O-])c4)CC3)c2cc1OC | 273 to 274 °C |
| Cl.Cl.S=C(NCc1cccnc1)N1CCN(c2ncnc3cccc(Cl)c23)CC1 | 150 to 152 °C |
| Cc1ccc2c(N3CCN(C(=S)NCc4cccnc4)CC3)ncnc2c1.Cl.Cl | 180 to 183 °C |
| COc1ccc2c(N3CCN(C(=S)NCc4cccnc4)CC3)ncnc2c1OC.Cl | 208 to 209 °C |
| Cl.Cl.S=C(NCc1cccnc1)N1CCN(c2ccnc3ccccc23)CC1 | 183 to 185 °C |
| Cl.Cl.S=C(NCc1cccnc1)N1CCN(c2ccnc3ccc(Cl)cc23)CC1 | 162 to 164 °C |
| Cl.Cl.S=C(NCc1cccnc1)N1CCN(c2ccnc3cc(Cl)ccc23)CC1 | 170 to 173 °C |
| COc1cc2ccnc(N3CCN(C(=S)NCc4cccnc4)CC3)c2cc1OC.Cl.Cl | 195 to 197 °C |
| COc1cc2ncnc(N3CCCN(C(=S)NCc4cccnc4)CC3)c2cc1OC.Cl.Cl | 177 to 183 °C |
| COc1cc(OC)c2ncnc(N3CCN(C(=S)NCc4cccnc4)CC3)c2c1 (as salt: hydrochloride) [Compound 382, 4-(6,8-Dimethoxy-4-quinazolinyl)-N-(3-picolyl)-1-piperazinethiocarboxamide] | 164 to 167 °C |
| COc1cc2ncnc(N3CCN(C(=S)Nc4ccccc4)CC3)c2cc1OC [Compound 2, 4-(6,7-Dimethoxy-4-quinazolinyl)-N-phenyl-1-piperazinethiocarboxamide] | 230 to 232 °C |
| COc1cc2ncnc(N3CCN(C(=O)NC(=O)c4ccccc4)CC3)c2cc1OC [Compound 4, N-Benzoyl-4-(6,7-dimethoxy-4-quinazolinyl)-1-piperazinecarboxamide] | 122 to 124 °C |
| COc1cc2ncnc(N3CCN(C(=O)NS(=O)(=O)c4ccccc4)CC3)c2cc1OC [Compound 5, N-Benzenesulfonyl-4-(6,7-dimethoxy-4-quinazolinyl)-1-piperazinecarboxamide] | 98 to 100 °C |
| COc1cc2ncnc(N3CCN(C(=S)NCCc4ccccc4)CC3)c2cc1OC [Compound 6, 4-(6,7-Dimethoxy-4-quinazolinyl)-N-(2-phenylethyl)-1-piperazinethiocarboxamide] | 76 to 80 °C |
| COc1cc2ncnc(N3CCN(C(=S)NCCCCc4ccccc4)CC3)c2cc1OC [Compound 7, 4-(6,7-Dimethoxy-4-quinazolinyl)-N-(4-phenylbutyl)-1-piperazinethiocarboxamide] | 112 to 114 °C |
| COc1cc2ncnc(N3CCN(C(=S)NCC(c4ccccc4)c4ccccc4)CC3)c2cc1OC [Compound 11, 4-(6,7-Dimethoxy-4-quinazolinyl)-N-(2,2-diphenylethyl)-1-piperazinethiocarboxamide] | 93 to 94 °C |
| C#CCNC(=S)N1CCN(c2ncnc3cc(OC)c(OC)cc23)CC1 [Compound 16, 4-(6,7-Dimethoxy-4-quinazolinyl)-N-(2-propynyl)-1-piperazinethiocarboxamide] | 158 to 160 °C |
| CCCCc1ccc(NC(=S)N2CCN(c3ncnc4cc(OC)c(OC)cc34)CC2)cc1 [Compound 21, N-(4-Butylphenyl)-4-(6,7-dimethoxy-4-quinazolinyl)-1-piperazinethiocarboxamide] | 171 to 173 °C |
| COc1cc2ncnc(N3CCN(C(=O)Nc4c(C(C)C)cccc4C(C)C)CC3)c2cc1OC [Compound 31, N-(2,6-Diisopropylphenyl)-4-(6,7-dimethoxy-4-quinazolinyl)-1-piperazinecarboxamide] | 280 to 282 °C |
| COc1cc2ncnc(N3CCN(C(=O)Nc4cc(C(F)(F)F)cc(C(F)(F)F)c4)CC3)c2cc1OC [Compound 32, N-[3,5-Bis(trifluoromethyl)phenyl]-4-(6,7-dimethoxy-4-quinazolinyl)-1-piperazinecarboxamide] | 251 to 252 °C |
| COc1cc2ncnc(N3CCN(C(=S)NCc4ccc(Cl)cc4)CC3)c2cc1OC [Compound 42, N-(4-Chlorobenzyl)-4-(6,7-dimethoxy-4-quinazolinyl)-1-piperazinethiocarboxamide] | 218 to 220 °C |
| COc1cc2ncnc(N3CCN(C(=O)NS(=O)(=O)c4ccc(Cl)cc4)CC3)c2cc1OC [Compound 43, N-(4-Chlorobenzenesulfonyl)-4-(6,7-dimethoxy-4quinazolinyl)-1-piperazinecarboxamide] | 228 to 234 °C |

Further lines, results first:

| melting point | Structure (SMILES) |
| --- | --- |
| 174 to 178 °C | COc1cc2ncnc(N3CCN(C(=S)Nc4ccc(C(=O)NC5CCOC5=O)cc4)CC3)c2cc1OC (racemic) [Compound 92, (dl)-N-[4-(2,3,4,5-Tetrahydro-2-oxofuran-3-ylcarbamoyl)phenyl]-4-(6,7-dimethoxy-4-quinazolinyl)-1-piperazinethiocarboxamide] |
| 121 to 123 °C | COc1cc2ncnc(N3CCN(C(=O)Nc4ccccc4)CC3)c2cc1OC [Compound 1, 4-(6,7-Dimethoxy-4-quinazolinyl)-N-phenyl-1-piperazinecarboxamide] |
| 167 to 168 °C | COc1cc2ncnc(N3CCN(C(=O)NCc4ccccc4)CC3)c2cc1OC [Compound 3, N-Benzyl-4-(6,7-dimethoxy-4-quinazolinyl)-1-piperazinecarboxamide] |
| 254 to 256 °C | COc1cc2ncnc(N3CCN(C(=O)Nc4cccc5ccccc45)CC3)c2cc1OC [Compound 8, 4-(6,7-Dimethoxy-4-quinazolinyl)-N-(1-naphthyl)-1-piperazinecarboxamide] |
| 208 to 210 °C | COc1cc2ncnc(N3CCN(C(=O)NC4CCCCC4)CC3)c2cc1OC [Compound 13, N-Cyclohexyl-4-(6,7-dimethoxy-4-quinazolinyl)-1-piperazinecarboxamide] |
| 225 to 228 °C | COc1cc2ncnc(N3CCN(C(=O)Nc4ccc(C)cc4)CC3)c2cc1OC [Compound 17, 4-(6,7-Dimethoxy-4-quinazolinyl)-N-(4-tolyl)-1-piperazinecarboxamide] |
| 251 to 252 °C | CCc1ccc(NC(=O)N2CCN(c3ncnc4cc(OC)c(OC)cc34)CC2)cc1 [Compound 18, N-(4-Ethylphenyl)-4-(6,7-Dimethoxy-4-quinazolinyl)-1-piperazinecarboxamide] |
| 216 to 222 °C | CCCCc1ccc(NC(=O)N2CCN(c3ncnc4cc(OC)c(OC)cc34)CC2)cc1 [Compound 20, N-(4-Butylphenyl)-4-(6,7-dimethoxy-4-quinazolinyl)-1-piperazinecarboxamide] |
| 221 to 224 °C | COc1cc2ncnc(N3CCN(C(=S)Nc4ccc(C(C)(C)C)cc4)CC3)c2cc1OC [Compound 22, N-(4-tert-Butylphenyl)-4-(6,7-dimethoxy-4-quinazolinyl)-1-piperazinethiocarboxamide] |
| 227 to 230 °C | COc1cc2ncnc(N3CCN(C(=O)Nc4ccc(C(F)(F)F)cc4)CC3)c2cc1OC [Compound 23, 4-(6,7-Dimethoxy-4-quinazolinyl)-N-[4-(trifluoromethyl)phenyl]-1-piperazinecarboxamide] |
| 110 to 111 °C | C=Cc1ccc(NC(=S)N2CCN(c3ncnc4cc(OC)c(OC)cc34)CC2)cc1 [Compound 24, 4-(6,7-Dimethoxy-4-quinazolinyl)-N-(4-vinylphenyl)-1-piperazinethiocarboxamide] |
| 238 to 241 °C | COc1cc2ncnc(N3CCN(C(=O)Nc4ccc(C5CCCCC5)cc4)CC3)c2cc1OC [Compound 26, N-(4-Cyclohexylphenyl)-4-(6,7-dimethoxy-4-quinazolinyl)-1-piperazinecarboxamide] |
| 223 to 226 °C | COc1cc2ncnc(N3CCN(C(=O)Nc4cc(C)cc(C)c4)CC3)c2cc1OC [Compound 29, 4-(6,7-Dimethoxy-4-quinazolinyl)-N-(3,5-dimethylphenyl)-1-piperazinecarboxamide] |
| 202 to 203 °C | COc1cc2ncnc(N3CCN(C(=O)Nc4ccc(C)c(C)c4)CC3)c2cc1OC [Compound 30, 4-(6,7-Dimethoxy-4-quinazolinyl)-N-(3,4-dimethylphenyl)-1-piperazinecarboxamide] |
| 176 to 177 °C | COc1cc2ncnc(N3CCN(C(=O)Nc4ccccc4F)CC3)c2cc1OC [Compound 34, 4-(6,7-Dimethoxy-4-quinazolinyl)-N-(2-fluorophenyl)-1-piperazinecarboxamide] |
| 214 to 220 °C | COc1cc2ncnc(N3CCN(C(=O)Nc4cccc(F)c4)CC3)c2cc1OC [Compound 35, 4-(6,7-Dimethoxy-4-quinazolinyl)-N-(3-fluorophenyl)-1-piperazinecarboxamide] |
| 198 to 202 °C | COc1cc2ncnc(N3CCN(C(=O)Nc4ccc(F)cc4)CC3)c2cc1OC [Compound 36, 4-(6,7-Dimethoxy-4-quinazolinyl)-N-(4-fluorophenyl)-1-piperazinecarboxamide] |
| 212 to 217 °C | COc1cc2ncnc(N3CCN(C(=S)Nc4ccc(F)cc4)CC3)c2cc1OC [Compound 37, 4-(6,7-Dimethoxy-4-quinazolinyl)-N-(4-fluorophenyl)-1-piperazinethiocarboxamide] |
| 186 to 187 °C | COc1cc2ncnc(N3CCN(C(=O)Nc4ccccc4Cl)CC3)c2cc1OC [Compound 38, N-(2-Chlorophenyl)-4-(6,7-dimethoxy-4-quinazolinyl)-1-piperazinecarboxamide] |
| 223 to 224 °C | COc1cc2ncnc(N3CCN(C(=O)Nc4cccc(Cl)c4)CC3)c2cc1OC [Compound 39, N-(3-Chlorophenyl)-4-(6,7-dimethoxy-4-quinazolinyl)-1-piperazinecarboxamide] |
| 217 to 219 °C | COc1cc2ncnc(N3CCN(C(=O)Nc4ccc(Cl)cc4)CC3)c2cc1OC [Compound 40, N-(4-Chlorophenyl)-4-(6,7-dimethoxy-4-quinazolinyl)-1-piperazinecarboxamide] |
| 221 to 222 °C | COc1cc2ncnc(N3CCN(C(=O)Nc4cccc(Br)c4)CC3)c2cc1OC [Compound 44, N-(3-Bromophenyl)-4-(6,7-dimethoxy-4-quinazolinyl)-1-piperazinecarboxamide] |
